Laboratory results: patent US20230398092A1, “APPLICATION OF SESQUITERPENE LACTONE COMPOUND IN PREPARATION OF DRUGS FOR ALLEVIATING RADIOTHERAPY-INDUCED INJURIES” (ACCENDATECH CO., LTD., priority 2020, published 2023)
Where two headings read alike, the source gives them in different places.

Tests used:
[1] = system: BEAS2B human normal lung epithelial cell strain; assay: Selective radiotherapy protection effect on normal cells (CCK-8), normal lung epithelial cells; type: cell-based; conditions: ACT001 10 μM, 0-6 Gy, radiation 1 h after dosing, 48 h, FIG. 5
Method: (§1) The culture medium for H226 and BEAS2B cells was DMEM, and the cells were cultured in a cell incubator at 37° C. with 5% CO2.
(§2) Recover of H226 and BEAS2B cells: a cryopreservation tube was taken from liquid nitrogen, placed in water bath at 37° C. to thaw the cryopreservation solution, and centrifuged at 1000 rpm for 5 min.
(§3) The supernatant was discarded, and the cells were resuspended in a complete culture medium and cultured under the condition of 37° C., 5% CO2.
(§4) When 70-80% of the bottom of the culture dish was covered by the cells, the culture medium was discarded. The cells were washed with 2-3 mL of PBS buffer and digested with 1 mL of 0.25% pancreatin (just enough to cover the bottom of the flask). Immediately after the cell became round after being cultured in the incubator for a period of time, a complete culture medium was added to stop the digestion, and the cell suspensions after the digestion were combined and centrifuged at 1000 rpm for 5 min. The supernatant was discarded, and the cells were resuspended in a complete culture medium, gently pipetted, and counted. […]
(§5) Dosing was performed 24 h after the cells were seeded. […] 10 μL of CCK-8 solution (taking care not to create air bubbles in the wells, which would affect the OD readings) was added to each well, and the plate was incubated in the incubator for 1-4 h. The OD value at 450 nm was determined with a microplate reader.

[2] = system: BALB/c mice; assay: Effect of ACT001 on radiation-induced neuronal apoptosis of mice (Tunel staining of whole brain); type: in vivo; conditions: ACT001 200 mg/kg intragastrically + brain radiation 2 Gy × 4 or single 4 Gy, day 14, Tunel staining, FIG. 7
From the text: (§6) 2.3 Experimental Animal and Feeding Conditions • Adult BALB/c mice, 18-19 g, 8 weeks, female, SPF (Beijing) Biotechnology Co., Ltd., animal certificate number: SCXK (Beijing) 2019-0010. The test animals were bred in the barrier environment of the experimental animal center of the Institute of Radiation Medicine, Chinese Academy of Medical Sciences, with 5 animals in each cage. The padding was autoclaved special padding for mice, and the mice were fed with special sterilized feed, and were free to drink purified water. In the animal laboratory, the temperature was kept at about 25° C., the relative humidity was kept at 40%-70%, and the illumination was provided for 12 h daily. 3. Experimental procedures and compound treatment
3.1 Administration Method • ACT001 (dissolved in sterile normal saline) was administered intragastrically once daily; an equal volume of sterile normal saline was administered to the model control group; • The compound for each group was prepared freshly prior to use.
3.2 Experimental Grouping • (1) Model control group • (2) Radiotherapy control group (4 Gy) • (3) ACT001-200 mg/kg group • (4) ACT001-200 mg/kg+4 Gy group • (5) Radiotherapy low-dose control group (2 Gy) • (6) ACT001-200 mg/kg+2 Gy group • 10 animals in each group, 60 animals in total.
The mice were randomly grouped, with 10 mice in each group. […]

[3] = system: BALB/c mice; assay: Effect of ACT001 on survival of mice subjected to radiotherapy; type: in vivo
From the text: as §6, with “Adult” for “2.3 Experimental Animal and Feeding Conditions • Adult”, “2016-0002.” for “2019-0010.”, “common” for “barrier”, “daily.” for “daily. 3. Experimental procedures and compound treatment”
In a preliminary experiment of radiation dose exploration, mice were subjected to radiation at 8 Gy, 10 Gy, 12 Gy, and 14 Gy, respectively. All animals died 18 days after the radiation. However, the animals in the 8 Gy group survived longer than the other groups, so the radiation dose of 8 Gy was selected for the formal experiment.
3.1 Experimental Procedures • (1) The lethal dose of a single radiation of mice was determined through a preliminary experiment; (2) the mice were randomly grouped by the body weight; • (3) ACT001 was pre-administered for 17 consecutive days, and the state of the animals was observed and the body weight was measured daily; • (4) the mice in groups (3) and (4) were subjected to radiation at a lethal dose after 17 days of the administration, and on the day of radiation, ACT001 was administered 1 h before the radiation; • (5) ACT001 was continuously administered for five weeks after the radiation, and the survival state of the animals was observed and the body weight was measured daily. The survival rate and survival time of mice in each group were calculated.
3.2 Grouping Regimen • (1) Blank control group • (2) ACT001-200 mg/kg group • (3) Radiotherapy-8 Gy group • (4) ACT001-200 mg/kg+radiotherapy-8 Gy group
A total of 4 groups were set in the experiment, with 10 animals in each group.
3.3 Administration Method • ACT001 (dissolved in normal saline) was administered intragastrically once daily, with an interruption once a week; • an equal volume of normal saline was administered intragastrically to the blank control group.
Data were expressed as x±s; statistical analysis among groups was performed using the t-test program in EXCEL software, and the logrank chi-square test method was used to evaluate whether there was statistical significance in each group of dead animals.

[4] = system: H226 human squamous lung carcinoma cell strain; assay: Selective radiotherapy protection effect (CCK-8), lung cancer cells; type: cell-based; conditions: ACT001 10 μM, 0-6 Gy, radiation 1 h after dosing, 48 h, FIG. 5
Method: as §1, §2, §3, §4, §5

[5] = system: U118-MG human brain astroblastoma cell strain; assay: Anti-proliferation activity of ACT001 at different radiation doses (CCK-8); type: cell-based; conditions: ACT001 20 μM; for inhibition at 20 µM: Homo sapiens, U-118-MG, U118-MG cells, read-out: Inhibition rate (%) at different radiation doses
Method: The culture medium for U118-MG was DMEM, and the cells were cultured in a cell incubator at 37° C. with 5% CO2.
(§7) Recover of U118-MG cells: a cryopreservation tube was taken from liquid nitrogen, placed in water bath at 37° C. to thaw the cryopreservation solution, and centrifuged at 1000 rpm for 5 min. The supernatant was discarded, and the cells were resuspended in a complete culture medium and cultured under the condition of 37° C., 5% CO2.
When 70-80% of the bottom of the culture flask was covered by the cells, the culture medium was discarded by pipetting. The cells were washed with 2-3 mL of PBS buffer and digested with 1-2 mL of 0.25% pancreatin (just enough to cover the bottom of the flask). Immediately after the cell became round after being cultured in the incubator for a period of time, a complete culture medium was added to stop the digestion, and the cell suspensions after the digestion were combined and centrifuged at 1000 rpm for 5 min. The supernatant was discarded, and the cells were resuspended in a complete culture medium, gently pipetted, and counted. The cell density was adjusted to 2500 cells/well, and the cells were seeded into a 96-well plate at 90 μL/well.
Dosing was performed one day after the cells were seeded. Each plate was divided into a blank group, a negative control group and 10 compound groups, with 4-6 duplicate wells set for each group. 10 μL of the compound was added to each well. 3 h later, each well received a corresponding radiation dose. The cells were cultured at 37° C. for 24 h. After that, the culture medium was discarded, a corresponding fresh culture medium was added, and the plate was incubated for 48 h. At the end of incubation, 10 μL of CCK-8 solution (taking care not to create air bubbles in the wells, which would affect the OD readings) was added to each well, and the plate was incubated in the incubator for 1-4 h. The OD value at 450 nm was determined with a microplate reader.
The data were processed with an EXCEL software to solve inhibition rates at different concentrations, and IC50 values were obtained by fitting with SPSS. The mean and standard deviation of the IC50 values obtained three times were solved by SPSS.
Inhibition rate %={1−(OD value of compound well−OD value of blank well)/(OD value of control well−OD value of blank well)}×100%

[6] = system: SYSY human neuroblastoma cell strain; assay: Alleviation of radiation-induced neuronal cell death (CCK-8); type: cell-based; conditions: ACT001 1.25-10 μM, 0-10 Gy, radiation 1 h after dosing, 48 h, FIG. 6
Method: The culture medium for SYSY cells was DMEM, and the cells were cultured in a cell incubator at 37° C. with 5% CO2.
as §7, with “SYSY” for “U118-MG”
as §4, §5

CC1=C2CC[C@@](C)(O)[C@@H]2[C@H]2OC(=O)[C@@H](CN(C)C)[C@@H]2CC1.O=C(O)/C=C/C(=O)O [ACT001, (3R,3aS,9R,9aS,9bS)-3-((dimethylamino)methyl)-9-hydroxy-6,9-dimethyl-3,3a,4,5,7,8,9,9a-octahydroazuleno[4,5]furan-2(9bH)-one fumarate]
Effect on radiotherapy-induced injuries of BEAS2B cells [1]: significantly reduce radiotherapy-induced injuries of BEAS2B cells | Apoptosis of neurons in the cerebral cortex compared with radiation-only groups [2]: significantly reduce the apoptosis of neurons | Day on which animal death occurred ([3]; ACT001 200 mg/kg + radiotherapy 8 Gy group): 15 days | Survival time compared with the radiotherapy control-8 Gy group ([3]; ACT001 200 mg/kg + radiotherapy 8 Gy, P<0.01): significantly prolonged | State and body weight of animals during pre-administration ([3]; ACT001 200 mg/kg intragastrically, 17 consecutive days before radiotherapy): in good state with stable body weight | Survival rate (%) ([3]; ACT001 200 mg/kg p.o. × 49 + systemic radiotherapy 8 Gy × 1, BALB/c mice): 70% | Body weight (g) End ([3]; ACT001 200 mg/kg p.o. × 49 + systemic radiotherapy 8 Gy × 1, x ± s): 18.5 ± 2.9 g | Survival rate (%) ([3]; ACT001 200 mg/kg p.o. × 49, no radiotherapy, BALB/c mice): 100% | Body weight (g) End ([3]; ACT001 200 mg/kg p.o. × 49, no radiotherapy, x ± s): 19.1 ± 3.0 g | Protection effect on H226 tumor cells against radiation [4]: no protection effect on H226 tumor cells | Effect on the inhibition by radiation of the proliferation of U118-MG cells ([5]; FIG. 1): significantly enhance the inhibition effect of the radiation group | inhibition at 20 µM ([5]; 0 Gy): 19.2% | inhibition at 20 µM ([5]; 6 Gy): 22.8% | inhibition at 20 µM ([5]; 10 Gy): 33.8% | inhibition at 20 µM ([5]; 20 Gy): 36.1% | inhibition at 20 µM ([5]; 50 Gy): 75.6% | Effect on injuries of SYSY cells caused by radiation [6]: significantly reduce the injuries of SYSY cells caused by radiation
